Experimental data from patent US20050271692A1, “Topical cosmetic compositions” (Cosmeceutic Solutions Pty. Ltd., priority 2002, published 2005).

Key:
[1] = In vitro skin tape-stripping study; format: in vitro ADME, human; conditions: o/w cream with octyl salicylate vs control cream without; 10 hours after application; 20 tape strips
Protocol: Experiments were performed using full thickness human skin, after removal of the subcutaneous layer. Each skin sample was treated with 40 mg of appropriate donor phase. Serial sampling of the skin was completed at different time points after donor application, by tape stripping (3M Corp Adhesive tape) with a pressure load of 240 g/cm^2. Each tape strip removed approximately 1 layer of stratum corneum, and in each case, 20 tape strips were performed. Tape strips were extracted with methanol: chloroform and analysed by high performance liquid chromatography (HPLC).

[2] = In vitro skin diffusion study, flow-through diffusion cells; format: in vitro ADME, human; conditions: o/w cream with 2% octyl salicylate vs control cream without, 24 hours, 32° C, receptor 20% EtOH in water, p<0:05
Protocol: In vitro diffusion experiments were performed using stainless steel flow-through diffusion cells, using human epidermis maintained at 32° C. The receptor solution consisted of 20% EtOH in Milli-Q water. Eight cells for each condition were treated with 100 mg of appropriate donor phase. Samples were collected at appropriate time points and analysed by high performance liquid chromatography (HPLC).

COC1=C(OC)C(=O)C(C/C=C(\C)CC/C=C(\C)CC/C=C(\C)CC/C=C(\C)CC/C=C(\C)CC/C=C(\C)CC/C=C(\C)CC/C=C(\C)CC/C=C(\C)CCC=C(C)C)=C(C)C1=O [CoQ10, Coenzyme Q10]
amount in the upper and middle regions of the stratum corneum (tape strips) [1]: increase the amount

O=c1c(-c2ccc(O)cc2)coc2cc(O)cc(O)c12 [genistein]
increase of the cumulative amount across human epidermis compared with the control formulation [2]: 39%

O=C(O)CC(O)(CC(=O)O)C(=O)O [citric acid]
amount in the upper and middle regions of the stratum corneum (tape strips) [1]: increase the amount
